Measured values reported in ChEMBL document CHEMBL4145450, “Colchicine prodrugs and codrugs: Chemistry and bioactivities” (Eur J Med Chem, 2018).

Test: Displacement of [125I]-ASOR from asialoglycoprotein receptor in mouse parenchymal liver cells after 2 hrs

## COc1cc2c(c(OC)c1OC)-c1ccc(OC)c(=O)cc1[C@@H](NC(=O)CCSSCCC(=O)NC(CCCCNC(=O)[C@@H](CCCCNC(=O)CCCCO[C@@H]1O[C@H](CO)[C@H](O)[C@H](O)[C@H]1NC(C)=O)NC(=O)CCCCO[C@@H]1O[C@H](CO)[C@H](O)[C@H](O)[C@H]1NC(C)=O)C(=O)O)CC2 (stereo partly specified)
  Ki: 4.5 nM
